Experimental data as given in paper PMC9769694, “Discovery of Two Inhibitors of the Type IV Pilus Assembly ATPase PilB as Potential Antivirulence Compounds” (Microbiology Spectrum, 2022).
Several values for one entry are separate records, joined by “and”; a condition that tells them apart may be missing. Equal values may be shown once.

What was measured:
[1] = target: CtPilB (Chloracidobacterium thermophilum, UniProt G2LDI3); experiment: Malachite green ATPase assay, dose response (benchtop); type: biochemical; conditions: IC50, CtPilB ATPase activity, full-length CtPilB, curve fitting, three independent experiments
Experimental: The full-length CtPilB and the CtPilBΔN variant (with the first 139 residues at the N terminus truncated) were purified as preciously described ([29]). The HTS was conducted using 384-well microplates (Greiner, cat no. 781101). Each microwell for the screen contained a 15-μL reaction mixture consisting of 75 nM CtPilB, 0.5 mM ATP, 20 μM of a library compound, and 2% DMSO in activity buffer (50 mM N-tris(hydroxymethyl)methyl-3-aminopropanesulfonic acid [TAPS], 50 mM Tris, 75 mM KCl, 50 mM sodium acetate, 5 mM MgCl2, 50 mM ZnCl2 [pH 8.7]) ([29]). Reaction mixtures were incubated at 55°C for 10 min and transferred to ice for 5 min to stop the enzymatic reaction. MG reagent (50 μL) was added to each well for color development. After a 15-minute incubation, 5 μL of 34% (wt/vol) sodium-citrate (MP Chemicals) was added and the plate was mixed by shaking ([28], [29]). Absorbance at 620 nm (A620) was measured using a SpectraMax M5 microplate reader at room temperature. The HTS was performed at the Virginia Tech Center for Drug Discovery (VTCDD) Screening Laboratory.
The effects of inhibitors on the ATPase activity of CtPilB and CtPilBΔN and the binding of MANT-ATP were determined as described previously ([28], [29]). Stock solutions were prepared by dissolving benserazide hydrochloride (Alfa Aesar) or levodopa (Spectrum Chemical Mfg. Corp.) in dimethyl sulfoxide (DMSO; Fisher Biotech). Next, 10× working stocks for given concentrations of an inhibitor were freshly prepared before their use in an experiment. GraphPad Prism v7.04 was used for curve fitting and Student’s t test was used for statistical analysis.

[2] = tested on: M. xanthus T4P assembly; experiment: T4P assembly, dot blot of T4P fractions with anti-pilin antibodies; type: cell-based, Myxococcus xanthus; conditions: strain YZ603 (ΔdifE), 16-128 μM tested, P < 0.05
Experimental: Alternatively, they may inhibit other processes such as pilin production or T4P retraction. […] Briefly, pre-existing pili were sheared off and separated from cells by vortexing and centrifugation. These shaved or unpiliated cells were allowed to assemble new T4P in the presence or absence of a PilB inhibitor. T4P fractions were prepared and analyzed by dot blotting with anti-pilin antibodies as a measure of T4P levels ([28]). […] As such, the T4P fraction represents the level of T4P assembly without complication from T4P retraction ([28]).
Piliation levels of the M. xanthus strain YZ603 (ΔdifE) ([52]) were analyzed by dot-blotting with anti-PilA antibodies as previously described ([28]). This study included a fraction representing the “Basal” T4P levels for a given treatment. This is the T4P fraction from sheared cells mixed with an inhibitor and pre-equilibrated on ice for 10 min before the cells were incubated at 32°C for 20 min to allow T4P regrowth or assembly. These fractions were used as controls and subtracted as the baseline in data analysis.

[3] = tested on: M. xanthus pilin (PilA) production; experiment: Pilin production, dot blot of whole cells with anti-PilA antibodies; type: cell-based, Myxococcus xanthus; conditions: strain YZ603, whole cell dot blot
Experimental: Fig. 6A and B show a representative of the data from three biological experiments, each conducted with 4 technical replicates (R1 to R4).
Piliation levels of the M. xanthus strain YZ603 (ΔdifE) ([52]) were analyzed by dot-blotting with anti-PilA antibodies as previously described ([28]). This study included a fraction representing the “Basal” T4P levels for a given treatment. […] These fractions were used as controls and subtracted as the baseline in data analysis.

[4] = tested on: A. nosocomialis twitching motility; experiment: Twitching motility, crystal violet stained twitching area; type: cell-based, Acinetobacter nosocomialis; conditions: WT M2 strain; for effect on twitching of the WT strain at 128 μM: compared with ΔpilA; for concentration significantly reducing twitching: P < 0.05
Source text: The inhibitors may thus interact with conserved features of the PilB ATPase family. A. nosocomialis PilB ([19]), whose N terminus is not similar to the MshEN domain (data not shown), shares ~53% identity and ~74% homology with MxPilB and MC3PilB in the ATPase domain (Fig. S1). We analyzed whether benserazide and levodopa could impact the T4P-powered twitching motility ([19], [44]) of A. nosocomialis (Fig. 7), an opportunistic pathogen in the Acinetobacter calcoaceticus-Acinetobacter baumannii (ACB) complex ([45]). As shown in Fig. 7A and B and Fig. S7, benserazide and levodopa impede the twitching motility of WT A. nosocomialis in a concentration-dependent manner.
FIG 7 Benserazide and levodopa inhibit Acinetobacter nosocomialis twitching motility and biofilm formation. (A and B) Twitching motility is correlated with the twitching area (cm^2) of the A. nosocomialis wild-type (WT) strain in the presence of (A) benserazide or (B) levodopa, with the control (no inhibitor) normalized to 1. Data are from 3 independent experiments, each performed in triplicates and represented by dots of the same color. (C and D) Biofilms formed by A. nosocomialis with (C) benserazide or (D) levodopa were analyzed by a microplate assay with crystal violet (CV) staining. Results from three independent experiments, each performed in quadruplicates and represented by dots of the same color, are shown. Horizontal lines indicate overall averages, and asterisks (*) signify that values at the indicated concentration are statistically different from those of the control (P < 0.05).
The A. nosocomialis wild-type M2 strain and an isogenic pilA deletion (ΔpilA) mutant ([19], [46]) were used in this study. They were grown and maintained using MacConkey medium at 37°C. The twitching motility of the M2 strain of A. nosocomialis was analyzed with 1% crystal violet (CV) for staining, and twitching areas were used as measures of motility as previously described ([46]). These motility assays were conducted in triplicates and the stained area of the ΔpilA mutant was subtracted from that of the WT for data analysis. A. nosocomialis biofilm formation was analyzed using microplates and CV staining as previously described ([53], [54]). The biofilm assays were conducted in quadruplicate in MacConkey medium with tissue culture-treated microtiter plates (Falcon). CV absorbance (Acv) was measured at 590 nm using Infinite M200 PRO in clear polystyrene 96-well microplates (ExtraGene). Absorbance for each well was read 16 times using Multiple Reads with the average as the final Acv value. Readings from control wells without bacteria were subtracted for normalization. Statistical differences were determined using a Student’s t test.

[5] = tested on: Escherichia coli; experiment: Growth in liquid culture; type: cell-based; conditions: up to 512 μM (highest tested), data not shown
Source text: These include many bacteria with alarming prevalence for causing antibiotic-resistant infection ([12]). […] This is important because, for the development of antivirulence chemotherapies, the small molecules should not have an inhibitory effect on bacterial growth. Otherwise, they would select for resistance, just like antibiotics. From a chemical structure perspective, levodopa is 3,4-dihydroxyphenylalanine (Fig. 2), or phenylalanine with two hydroxyl groups. […] These preliminary studies of structure and activity relationships are consistent with benserazide and levodopa being specific inhibitors of PilB. As mentioned earlier, work with trifluoperazine ([25]) and P4MP4 ([26], [27]) has provided the proof of principle for antivirulence therapies with anti-T4P compounds. It is also encouraging that a compound targeting the adhesin function of the type 1 pilus of the uropathogenic E. coli (UPEC) ([47]) has moved to the clinical trial phase in the drug development pipeline ([48]).

Sequence of CtPilB (G2LDI3 entry or part of it): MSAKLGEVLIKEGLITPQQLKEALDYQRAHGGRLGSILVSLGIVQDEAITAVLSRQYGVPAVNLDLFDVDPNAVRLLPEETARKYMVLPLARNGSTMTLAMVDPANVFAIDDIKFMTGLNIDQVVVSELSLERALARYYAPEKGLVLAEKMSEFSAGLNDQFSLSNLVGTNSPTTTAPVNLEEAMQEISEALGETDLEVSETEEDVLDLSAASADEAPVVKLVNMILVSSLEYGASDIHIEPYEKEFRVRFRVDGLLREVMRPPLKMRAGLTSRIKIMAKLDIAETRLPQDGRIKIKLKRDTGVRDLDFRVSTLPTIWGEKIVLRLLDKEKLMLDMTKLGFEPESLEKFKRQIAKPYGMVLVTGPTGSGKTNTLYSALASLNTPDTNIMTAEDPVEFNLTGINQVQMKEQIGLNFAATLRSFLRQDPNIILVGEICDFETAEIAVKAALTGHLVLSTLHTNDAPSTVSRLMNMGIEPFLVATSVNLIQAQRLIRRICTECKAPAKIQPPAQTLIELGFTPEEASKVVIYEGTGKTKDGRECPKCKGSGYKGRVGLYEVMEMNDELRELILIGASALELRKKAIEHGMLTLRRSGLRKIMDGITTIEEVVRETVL

SMILES: N[C@@H](Cc1ccc(O)c(O)c1)C(=O)O [levodopa, 3,4-dihydroxyphenylalanine]
- IC50 [1]: 58 µM and 58.8 µM
- concentration giving statistically significant decrease in T4P assembly [2]: ≥ 32 µM
- effect on pilin production level [3]: neither compound had any detectable effect
- effect on twitching of the WT strain at 128 μM [4]: eliminated twitching
- concentration significantly reducing twitching [4]: ≥ 32 µM
- effect on growth in liquid culture [5]: neither benserazide nor levodopa had any discernible effect on the growth

SMILES: NC(CO)C(=O)NNCc1ccc(O)c(O)c1O (stereo not drawn) [benserazide]
- IC50 [1]: 2.1 ± 0.4 µM
- concentration giving statistically significant decrease in T4P assembly [2]: ≥ 16 µM
- effect on pilin production level [3]: neither compound had any detectable effect
- effect on twitching of the WT strain at 128 μM [4]: eliminated twitching
- concentration significantly reducing twitching [4]: ≥ 32 µM
- effect on growth in liquid culture [5]: neither benserazide nor levodopa had any discernible effect on the growth
